Consider ten molecules from patent publication US20140350092A1, “METHOD FOR […] VIRUS INFECTION” (Natura Corporation, priority 2003, published 2014).

Series [1] has as its system Japan cedar pollen. The series can be described thus: Assay of pollen enclosure (pollen rouleaux formation / pollen aggregation). Here is the method:
In order to assay the actions of pectin and nucleic acid, contained in the contact preventive biological preparation of the present invention, on pollen, the following experiments were carried out. In the following experiments, by “pollen rouleaux formation” is meant a state in which a plurality of pollen particles continue linearly, and by “pollen aggregation” is meant a state in which a plurality of pollen particles constitute a bulk. Both “pollen rouleaux formation” and “pollen aggregation” denote a state in which pollen particles are captured by a medium and their free movement is inhibited, and as the degree thereof increases, the power of enclosing pollen increases.
Japan cedar pollen was put in a first water solution containing pectin (#168-00555 by Wako Pure Chemical Industries, Ltd.), in a second water solution containing glycerin, in a third water solution containing pectin and glycerin, and in a fourth water solution containing DNA (DN-JA0904, DK-JB0218 by Daiwa Fine Chemical Co. Ltd.), RNA (R6625 by Sigma), amino acid, and glycerin, and these water solutions were subjected to incubation for ten minutes at room temperature to prepare pollen developed liquids.
Each pollen developed liquid was instilled in the form of a drop onto a slide glass and was allowed to stand. After being dried, the test sample was stained by means of a ruthenium red solution and a gentian violet alcohol solution, and the assay of pollen rouleaux formation was examined microscopically.
In order to comparatively examine the actions of enclosing pollen by pectins, uronic acid-containing substances, and mucopolysaccharides according to the present invention, the following twelve kinds of samples were examined in the same way as the first exemplary embodiment. The twelve samples were: YM115-H; LM101-AS; Type DF; SLENDID type 100; SLENDID type 200; LM104AS-FS; LM-SCS; USP-H; USP-L; LH-105AS; AS Confectionary; and YM150-LJ by Genu.

The conditions of series [2]: after ingestion versus before ingestion; cited from earlier work.
For series [3], the system named is neuraminidase of the type A influenza virus. In words: enzymatic activity of influenza-virus neuraminidase (synthetic coloring substrate). It counts as biochemical. The protocol:
The activity of neuraminidase of the type A influenza virus was analyzed by an enzymic reaction with a synthetic coloring substrate (Gene Stat Flu Kit by Nichirei). This enzymic reaction is based on the power of neuraminidase to cut acetyl neuraminic, and darker solution's blue-coloring result indicates higher enzymatic activity.
A virus test body, taken from the larynx of a type A influenza infected patient, was divided into two sample pieces, i.e., a control sample and a sample used for the evaluation of the anti-enzyme activity of pectins.

For series [4], the system named is basophiles in the blood of a pollenosis sufferer. In words: emission of histamine from basophiles in the blood of a pollenosis sufferer. The format is cell-based, human. The protocol: Blood sampling from a pollenosis sufferer was carried out, and basophiles recognized by a cell surface marker were separated by means of a magnet method. Then, the basophiles thus separated were exposed to a pollen extraction component fixed onto a micro plate, and emitted histamine was quantitatively measured by an absorbance method through a coloring reaction making use of antihistamic antibodies (HRT by Shionogi & Co., Ltd.).
A control sample making use of only a buffering solution, a sample comprising a pectin-containing buffering solution, and a nucleic acid-containing sample were prepared, and the rate of liberation of histamine with respect to the increase of allergen was comparatively examined. In the experiment, a cedar pollen extraction antigen was used as an allergen.

For series [5], the system named is pollenosis sufferer's white blood cells. The series can be described thus: in vitro cluster formation by pollenosis sufferer's white blood cells and pollen. It counts as cell-based, human. To be noted: pollen dispersed in 0.3% pectin water solution. Here is the method:
White blood cells separated from the blood of a pollenosis sufferer was subjected to incubation on a slide glass with cedar pollen fixed thereonto.

A short description of series [6]: Comparison in action with commercially available eyedrop and nosedrop biological preparations. On the set-up: species or system human. To be noted: in vivo. The text has this:
Conventional, commercially available eyedrop and nosedrop biological preparations against pollenosis symptoms were compared with the biological preparations according to the present invention in the action with respect to the manifestation of pollenosis symptoms.
The commercially available nosedrop biological preparations contain a vasopressor agent, an antihistamic agent, a bactericidal substance, a fragrant material et cetera.

Series [7] is described as follows: Application testing of eyedrop and nosedrop biological preparations on pollenosis sufferer. The format is in vivo, human. The protocol: The contact preventive biological preparation according to the present invention was applied to eyedrop and nosedrop biological preparations and their application tests were carried out on test subjects. These eyedrop and nosedrop biological preparations according to the present exemplary embodiment contain therein pectin (type DF et cetera by Genu) and DNA (Daiwa Fine Chemical Co. Ltd.) at the following contents.
The content of pectin and the content of DNA are: pectin (0.03 to 1.0%); DNA (0.05 to 1.0%); 0.5% pectin+0.5% DNA; 0.8% pectin+0.2% DNA; and 0.2% pectin+0.8% DNA.
Pollenosis sufferers were test subjects, and the degree of improvement in itching symptom when each eyedrop biological preparation was administrated at the time of the development of an allergic reaction and its duration and application (use) feeling (the degree of uncomfortable feeling) were examined. The results thus obtained were evaluated according to the following evaluation standards.

Series [8] relates to Japan cedar pollen. The series can be described thus: Assay of pollen enclosure (pollen rouleaux formation / pollen aggregation). To be noted: in biological preparations (artificial tears, nose spray, mouth washer) and drug solutions.

Take `OB(O)O` [boric acid]: in the series on Japan cedar pollen [1], the “effect on pollen aggregation / dispersion” value was “promoted the aggregation of pollen” and the pollen burst result is recorded as “causing pollen to burst”.
On to `N[C@@H](CCC(=O)O)C(=O)O` [glutamic acid], for which, in the series on Japan cedar pollen [1], the “effect of additive on the pollen enclosing action of pectin” value (“effect of additive” below) is given as “reinforce the action of enclosing pollen by pectin”.
Same read-out and setting: next, `OC[C@H]1O[C@H](O[C@H]2O[C@H](CO)[C@@H](O)[C@H](O)[C@H]2O)[C@H](O)[C@@H](O)[C@@H]1O` [trehalose]: “reinforced”.
As for apple pectin, in series [2], the “drop of concentration of histamine in the blood” value was 24%.
As for carboxymethyl cellulose, the “effect of additive” value in the series with Japan cedar pollen [1] was “reinforced”.
On to “carrageenan [carrageenan (K-100J), reference compound]”, for which the pollen enclosing power entry in the series with Japan cedar pollen [1] (comparison of samples, same way as first exemplary embodiment) was “less significant in pollen enclosing power than the others”.
Turning to cluster dextrin, the “effect of additive” value in the series on Japan cedar pollen [1] is listed as “reinforced”.
Regarding heparin [reference compound], the “neuraminidase enzymatic activity (blue color reaction)” value in series [3] (heparin 20 unit/ml) is “color exhibition of blue coloring became dull”.
With methyl cellulose, the “effect of additive” value with Japan cedar pollen [1] is given as “reinforced”.
Turning to pectin, the “effect of preventing the liberation of histamine” value in series [4] (0.03% pectin alone, FIG. 2) is “impossible for a 0.03% pectin-containing sample alone to provide a satisfactory effect”. Besides, the “liberation of histamine from basophiles” value in series [4] (0.03% pectin, cedar pollen extraction antigen, FIG. 1) was “inhibited over a wide range”; in series [4] (pectin about 0.1% to about 0.3%, high-concentration cedar pollen) it was “inhibited”. The “accumulation of white blood cells on pollen” value in series [5] is listed as “no tendency to accumulate on pollen”. In addition, in series [3] (0.05% pectin (USD-H by Genu)), the “neuraminidase enzymatic activity (blue color reaction)” value was “no color reaction was observed”. Further, in series [6], the “irritation / sensation on application” value was “felling of drying”. For the same molecule, in series [7] (eyedrop, FIG. 3, 0.5% pectin or 0.5% DNA), the “curative properties against the symptoms” value was “obvious curative properties against the symptoms”. Moreover, the application feeling entry in series [7] (eyedrops of a pectin concentration of 0.5% or more) is given as “caused a sticky feeling”. In addition, the “curative properties against pollenosis symptoms (itching and snuffles)” value in series [7] (pectin from 0.03 to 1%, used alone) is “curative properties against pollenosis symptoms”. Moreover, the “pollen enclosing function of pectin in presence of other components” value with Japan cedar pollen [8] was “exerted satisfactorily without any interference”. For the same molecule, the pollen rouleaux formation entry with Japan cedar pollen [1] (no pectin or pectin at a low concentration of less than 0.3%) is reported as “no rouleaux capture of cedar pollen was detected”; in the series on Japan cedar pollen [1] (pectin from about 0.03 to about 3.0%), “pollen rouleaux formation was promoted”.
